# Laboratory results reported in PubChem BioAssay AID179 (DTP/NCI, 2004).
# Several values for one entry are separate records, joined by “and”; a condition that tells them apart may be missing. Equal values may be shown once. Activity calls are given as the source filed them.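 Rule for the calls: active = compounds giving half or more protection of infected cells from virus-caused growth loss, again on retest; inactive = the rest.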 Where a SMILES comes first, the peptide text is derived from it. [ ]: non-standard residue; d: D form. The star is where a group is joined. NMeF = CN[CH](Cc1ccccc1)C(=O)O; NMeV = CN[CH](C(=O)O)C(C)C; Boc = CC(C)(C)OC(=O)*
# Test system: CEM cells HIV-1 protection, formazan growth assay
# Assay: NCI AIDS Antiviral Assay
# Conditions: for IC50: measured here: growth of uninfected CEM cells
# Outline: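 Soluble formazan readout of cell growth; CEM cells ± HIV-1; 5 drug concs. ≥50% protection → retest; ≥50% again = moderately active; reproducible 100% = confirmed active.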
Structure (SMILES),EC50 [µM],IC50,outcome
C(=C(c1ccc(OC2CCCCO2)cc1)c1ccc(OC2CCCCO2)cc1)c1ccccc1 (stereo unspecified),> 2,1.12 µM,
N#CC(NC12CC3CC(CC(C3)C1)C2)c1ccccc1C(F)(F)F (stereo unspecified),> 77.6,> 77.6 µM,
COc1cc(/C=C/C(=O)/C=C/c2cc(OC)c(OC)c(OC)c2)cc(OC)c1OC,> 200,0.0977 µM,
Cc1cn(C2CC(NO)C(CO)O2)c(=O)[nH]c1=O (stereo unspecified),38.9,178 µM,
NS(=O)(=O)c1ccc(N2C(=O)C(=O)N(c3ccccc3)C2=S)cc1,> 200,19.5 µM,
CCc1cccc(C)c1N1C(=O)C(=O)C(c2nc3ccccc3o2)C(=O)C1=O,> 331,66.1 µM,
CN(c1ccccc1)S(=O)(=O)c1ccc([N+](=O)[O-])cc1,> 200,110 µM,
CC1OC(n2cc(F)c(=O)[nH]c2=O)CCC1O (stereo unspecified),> 1020,> 200 µM,
CN(/N=C(\C(=O)O)c1ccccc1)C1=NCCCN1,> 200,> 200 µM,
CCOC(=O)C(Cc1c[nH]c2cc([N+](=O)[O-])ccc12)NS(=O)(=O)c1ccc2ccccc2c1 (stereo unspecified),> 15.5,> 15.5 µM,
N#Cc1c(-c2ccco2)cc(-c2ccccc2)[nH]c1=O,> 20,> 20 µM,
O=C1C(=Cc2cccc(Cl)c2)N=C(c2ccccc2)N1n1c(-c2ccccc2)nc2ccccc2c1=O,> 200,35.5 µM,
BrC1=CC2C(C3C=CC2(Br)C32OCCO2)C12OCCO2 (stereo unspecified),> 166,> 166 µM,
CC1CCCC/C1=N/NS(=O)(=O)c1ccc(N)cc1 (stereo unspecified),> 240,> 240 µM,
CC1(C)CC(=O)C2=C(C1)Nc1ccc(Cl)cc1NC2c1ccccc1 (stereo unspecified),> 200,75.9 µM,
O=S1(=O)CC2C3C=CC(O3)C21 (stereo unspecified),> 1450,> 1450 µM,
N/C(=N\N=C/c1c(O)cc(O)cc1O)NO,,,inactive
NC(=O)C1C(=O)Oc2cccnc21 (stereo unspecified),,,inactive
CC(C)(CC1=CC(=O)C=CC1=O)Cc1ccccc1,> 200,37.2 µM,
NS(=O)(=O)c1ccc(NNc2c3ccccc3nc3ccccc23)cc1,> 200,10.7 µM,
CNS(=O)(=O)NNS(=O)(=O)c1ccc(C)cc1,> 468,145 µM,
Cc1nc2n(c1C(N)=O)CCS2,> 200,> 200 µM,
Cn1c(-c2ccc(Br)cc2)cc2[nH]c(=S)nc(N)c2c1=O,> 100,> 100 µM,

Structure (SMILES),EC50 [µM],IC50,outcome
CC(C)C(NC(=O)OC(C)(C)C)C(=O)N(C)C(Cc1ccccc1)C(=O)N(C)C(C(=O)O)C(C)C (stereo not drawn) (Boc-Val-[NMeF]-[NMeV]-OH; configuration not given here),> 200,> 200 µM,
CN1C(C)(c2ccccc2)c2ccccc2S1(=O)=O (stereo unspecified),3.89,85.1 µM,
CCCC#CCC(CC#CCCC)(C(=O)O)C(=O)O,> 490,> 490 µM,
O=C(CCC1CCCCN1)Nc1ccc2c(c1)C(=O)c1ccc(NC(=O)CCN3CCCCC3)cc1C2=O (stereo unspecified),,,inactive
CC(C#N)(NO)C(C)(C#N)NO (stereo unspecified),> 200,> 200 µM,
O=C(C[P+](c1ccccc1)(c1ccccc1)c1ccccc1)c1ccccc1,> 200,32.4 µM and 31.6 µM and 37.2 µM,
NC(CNC(=O)CBr)C(=O)O (stereo unspecified),> 813,155 µM,
CCC(C)C(CC)C(N)=O (stereo unspecified),> 200,> 200 µM,
CN(CCN(C)CC(=O)O)CC(=O)O,> 617,550 µM,
O=c1[nH]nc(Cc2ccccc2)n1CCCl,> 200,> 200 µM,
CC1CCN(Cc2cccnc2)CC1,,,inactive
CC(=O)OC1CC2C(=S)Nc3cc4c(cc3C(=O)N2C1)OCO4 (stereo unspecified),> 200,> 200 µM,
CC(C)(C)CC1=CC(=O)C(C2=CC(=O)C(CC(C)(C)C)=CC2=O)=CC1=O,> 2,> 2 µM,
O=C(Cc1ccccc1)OCCOCCOCCOCCOCCOCCOCCOCCOCCOC(=O)Cc1ccccc1,,,inactive
CN(/N=C/c1ccccn1)C1=NCCCCN1,> 200,> 200 µM,
COc1ccccc1C1c2cc3c(cc2OC(N2CCOCC2)C1C)OCO3 (stereo unspecified),> 200,15.8 µM,
O=C1O[C@H]2CCC3=CC[C@@H](c4ccccc4)C=C1[C@H]32,,,inactive
c1ccc(CSc2ccc3nncc(SCc4ccccc4)c3c2)cc1,> 57.5,> 57.5 µM,
CCOP(=O)(OCC)/C(C#N)=C/c1cccn1CC(C)C,60.3,123 µM,
CC1C2CC(CC2O)C1(C)C (stereo unspecified),> 1620,> 1620 µM,
Nc1ccc(-c2ccc(N)c(S(=O)(=O)O)c2)cc1S(=O)(=O)O,> 724,> 724 µM,
O=C(O)CN(CC(=O)O)Cc1ccn(-c2cccc(-n3ccc(CN(CC(=O)O)CC(=O)O)n3)n2)n1,> 200,> 200 µM,
O=C(CC1(O)C(=O)Nc2c(Cl)cc(Cl)cc21)c1ccc(Br)cc1Br (stereo unspecified),> 51.3,44.7 µM,
